7 molecules from US12264156B2, “Compounds and pharmaceutical compositions thereof for the treatment of diseases” (GALAPAGOS NV, priority 2018, dated 2025) can be followed below.

One test addresses T1, SIK2 (Homo sapiens, UniProt Q9H0K1).
T1 construct: purchased ThermoFisher Scientific PV4792
The experiment in a line: ADP-Glo kinase assay, SIK2. The test is classed as biochemical. The following applies: ADP-Glo SIK kinase assay. The essentials:
(§1)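 Enzyme–substrate mix was started with ATP and incubated 120 min at RT. ADP formed was quantified by ADP-Glo: 40 min ATP depletion, then 30 min detection reagent converting ADP to ATP for luciferase luminescence, which rises with kinase activity. Controls: 1% DMSO and 10 μM staurosporine (final).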
On the technique in general: ADP-Glo first removes unused ATP, then detects ADP through luciferase.

Test [1] concerns LPS-induced TNFα in monocytes. The experiment in a line: Monocytes assay: LPS-triggered TNFα (ELISA). The test is classed as cell-based, human. Conditions: Homo sapiens, Monocyte, LPS 200 ng/mL, supernatant after 4 h. The essentials: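 Human CD14+ monocytes from buffy-coat PBMCs (magnetic bead selection) were seeded at 100 000 cells/well and pretreated with compound for 1 h at 37° C (0.2% DMSO). They were then stimulated with 200 ng/mL LPS for 4 h, and supernatant TNFα was measured by chemiluminescent sandwich ELISA as percent inhibition.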

The target in the next test is T2, SIK3 (Homo sapiens, UniProt Q9Y2K2).
T2 construct: purchased SignalChem S12-11G-100
The experiment in a line: ADP-Glo kinase assay, SIK3. Type of test: biochemical. Conditions: ADP-Glo SIK kinase assay. The essentials:
as §1

For the next test, the target named is T3, SIK1 (Homo sapiens, UniProt P57059).
T3 construct: purchased Carna Biosciences 02-131
The experiment in a line: ADP-Glo kinase assay, SIK1. The test is classed as biochemical. The following applies: ADP-Glo SIK kinase assay. The essentials:
as §1

For test [2], the system named is LPS triggered IL-10 secretion in monocytes. Nature of the test: Monocytes assay: LPS-triggered IL-10 (ELISA). Type of test: cell-based, human. The following applies: LPS 200 ng/mL, supernatant after 4 h, maximal fold change vs LPS only. In short, it runs like this: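 Human CD14+ monocytes, magnetically isolated from buffy-coat PBMCs, were seeded at 100 000 cells/well and preincubated with compound for 1 h at 37° C (0.2% DMSO). LPS was then added at a final 200 ng/mL for 4 h. Supernatant IL-10 was quantified by chemiluminescent sandwich ELISA against a standard curve.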
(In general: ELISA stands for enzyme-linked immunosorbent assay.)

pEC50, pIC50: −log10 of the molar value.

T3 sequence (P57059 whole entry): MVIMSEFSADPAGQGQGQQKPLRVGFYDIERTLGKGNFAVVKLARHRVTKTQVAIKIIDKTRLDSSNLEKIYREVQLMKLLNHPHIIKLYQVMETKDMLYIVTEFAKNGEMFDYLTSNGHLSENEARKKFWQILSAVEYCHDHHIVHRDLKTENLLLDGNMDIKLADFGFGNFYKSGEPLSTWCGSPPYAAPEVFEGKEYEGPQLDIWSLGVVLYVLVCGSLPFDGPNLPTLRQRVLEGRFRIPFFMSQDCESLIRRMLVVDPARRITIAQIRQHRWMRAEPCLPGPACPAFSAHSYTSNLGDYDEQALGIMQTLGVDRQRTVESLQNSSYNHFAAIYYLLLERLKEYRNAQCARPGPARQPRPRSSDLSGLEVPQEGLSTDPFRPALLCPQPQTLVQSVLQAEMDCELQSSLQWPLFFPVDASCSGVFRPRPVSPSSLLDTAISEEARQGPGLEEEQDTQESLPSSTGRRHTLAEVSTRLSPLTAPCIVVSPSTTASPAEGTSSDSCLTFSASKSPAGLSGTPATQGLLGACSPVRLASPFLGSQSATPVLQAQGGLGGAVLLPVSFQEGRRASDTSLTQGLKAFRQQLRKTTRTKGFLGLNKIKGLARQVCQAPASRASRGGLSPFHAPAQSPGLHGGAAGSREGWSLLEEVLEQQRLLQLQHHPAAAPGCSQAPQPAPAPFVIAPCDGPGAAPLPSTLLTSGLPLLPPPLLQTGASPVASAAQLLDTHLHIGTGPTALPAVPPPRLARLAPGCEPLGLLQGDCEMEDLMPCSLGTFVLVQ
T2 sequence (Q9Y2K2 whole entry): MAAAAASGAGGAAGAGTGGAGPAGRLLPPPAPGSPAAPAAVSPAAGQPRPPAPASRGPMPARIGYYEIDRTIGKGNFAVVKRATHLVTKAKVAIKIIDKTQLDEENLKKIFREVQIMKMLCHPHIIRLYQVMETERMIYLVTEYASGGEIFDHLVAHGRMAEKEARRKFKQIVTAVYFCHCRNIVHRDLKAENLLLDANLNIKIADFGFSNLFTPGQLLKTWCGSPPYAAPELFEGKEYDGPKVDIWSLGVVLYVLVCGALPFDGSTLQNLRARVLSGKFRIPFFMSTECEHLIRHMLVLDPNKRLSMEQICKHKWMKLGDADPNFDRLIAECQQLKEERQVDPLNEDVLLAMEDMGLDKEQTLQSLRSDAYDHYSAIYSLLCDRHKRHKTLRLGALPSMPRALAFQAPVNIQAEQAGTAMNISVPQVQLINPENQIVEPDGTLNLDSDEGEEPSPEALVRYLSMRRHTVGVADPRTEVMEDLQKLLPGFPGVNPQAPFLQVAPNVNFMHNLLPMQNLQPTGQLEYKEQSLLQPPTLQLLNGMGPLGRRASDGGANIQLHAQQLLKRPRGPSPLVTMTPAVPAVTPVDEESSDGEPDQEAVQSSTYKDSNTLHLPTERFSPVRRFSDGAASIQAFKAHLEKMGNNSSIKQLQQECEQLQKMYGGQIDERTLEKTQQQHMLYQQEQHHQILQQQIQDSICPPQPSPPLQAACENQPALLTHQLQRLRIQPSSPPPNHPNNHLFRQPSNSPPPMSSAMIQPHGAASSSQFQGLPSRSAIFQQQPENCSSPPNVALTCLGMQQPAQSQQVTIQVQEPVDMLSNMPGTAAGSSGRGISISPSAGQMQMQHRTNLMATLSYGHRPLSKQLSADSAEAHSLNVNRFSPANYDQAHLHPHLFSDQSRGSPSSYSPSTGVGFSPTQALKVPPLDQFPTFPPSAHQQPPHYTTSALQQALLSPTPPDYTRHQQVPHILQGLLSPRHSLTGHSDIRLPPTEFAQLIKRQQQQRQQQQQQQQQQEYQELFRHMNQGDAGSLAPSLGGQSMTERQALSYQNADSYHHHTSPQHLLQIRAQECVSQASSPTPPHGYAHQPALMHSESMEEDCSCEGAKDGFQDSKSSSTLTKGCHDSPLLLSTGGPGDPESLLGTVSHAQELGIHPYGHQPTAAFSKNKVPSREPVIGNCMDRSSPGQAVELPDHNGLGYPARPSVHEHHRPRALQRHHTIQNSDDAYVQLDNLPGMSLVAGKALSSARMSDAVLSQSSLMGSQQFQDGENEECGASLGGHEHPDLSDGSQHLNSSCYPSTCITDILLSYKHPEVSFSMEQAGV
T1 sequence (Q9H0K1 whole entry): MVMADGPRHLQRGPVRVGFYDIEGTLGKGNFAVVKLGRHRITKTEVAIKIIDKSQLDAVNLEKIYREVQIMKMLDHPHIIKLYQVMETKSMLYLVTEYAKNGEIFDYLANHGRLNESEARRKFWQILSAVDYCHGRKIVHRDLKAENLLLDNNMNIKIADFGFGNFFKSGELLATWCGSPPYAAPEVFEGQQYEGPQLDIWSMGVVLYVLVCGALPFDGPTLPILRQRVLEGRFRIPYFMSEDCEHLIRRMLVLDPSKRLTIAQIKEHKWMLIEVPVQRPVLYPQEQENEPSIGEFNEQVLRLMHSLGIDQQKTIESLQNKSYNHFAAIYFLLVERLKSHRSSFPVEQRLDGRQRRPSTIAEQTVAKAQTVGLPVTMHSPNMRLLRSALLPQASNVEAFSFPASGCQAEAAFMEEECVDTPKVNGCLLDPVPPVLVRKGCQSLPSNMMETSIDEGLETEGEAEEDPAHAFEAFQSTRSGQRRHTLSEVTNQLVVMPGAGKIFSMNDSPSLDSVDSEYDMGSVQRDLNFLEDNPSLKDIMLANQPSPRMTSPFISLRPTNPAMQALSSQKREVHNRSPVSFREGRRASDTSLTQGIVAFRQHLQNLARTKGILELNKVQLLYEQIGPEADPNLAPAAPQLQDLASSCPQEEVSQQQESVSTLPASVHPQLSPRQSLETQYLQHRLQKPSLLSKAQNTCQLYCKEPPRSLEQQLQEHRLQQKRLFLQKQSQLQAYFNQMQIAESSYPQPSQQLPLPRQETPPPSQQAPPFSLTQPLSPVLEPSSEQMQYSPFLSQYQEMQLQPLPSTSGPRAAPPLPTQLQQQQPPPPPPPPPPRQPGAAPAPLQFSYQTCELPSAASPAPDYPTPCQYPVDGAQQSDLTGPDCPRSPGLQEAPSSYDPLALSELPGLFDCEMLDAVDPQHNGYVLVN

As usually defined, the pIC50 is −log10 of the IC50, conventionally taken in molar units. A low value points to a high IC50. For orientation: pEC50 means the EC50 on a negative log10 scale, so that one unit is a factor of ten. A high value points to a low EC50. Consider `CCOC(=O)C1(O)CCN(CCCOc2ccn3c(-c4cc(OC)c(C(=O)NC5CC5)c(OC(F)F)c4)cnc3c2)CC1` [compound 381, ethyl 1-[3-[3-[4-(cyclopropylcarbamoyl)-3-(difluoromethoxy)-5-methoxy-phenyl]imidazo[1,2-a]pyridin-7-yl]oxypropyl]-4-hydroxy-piperidine-4-carboxylate], for which the pIC50 against SIK2 was 8.00 to 11.00; against SIK3 it was 8.00 to 11.00; at SIK1 it was 7.00 to 8.00. Moreover, the pEC50 in test [1] (4 h) is 7.00 to 10.00. Further, the “IL-10 FCmax median” value in test [2] is reported as “++ (>1.5-4.5)”.
As for `CCOC(=O)C1(c2ccccc2)CCN(CCCOc2ccn3c(-c4cc(OC)c(C(=O)NC5CC5)c(OC(F)F)c4)cnc3c2)CC1` [compound 378, ethyl 1-[3-[3-[4-(cyclopropylcarbamoyl)-3-(difluoromethoxy)-5-methoxy-phenyl]imidazo[1,2-a]pyridin-7-yl]oxypropyl]-4-phenyl-piperidine-4-carboxylate], the results for the negative logarithm of the IC50 (pIC50) against SIK2, at SIK3 and against SIK1 were 8.00 to 11.00, 8.00 to 11.00 and 7.00 to 8.00, respectively. For the same molecule, the negative logarithm of the EC50 (pEC50) in test [1] is 7.00 to 10.00. The “IL-10 FCmax median” value in test [2] is given as “++ (>1.5-4.5)”.
Take `CCOC(=O)C1(C)CCN(CC(O)COc2ccn3c(-c4cc(OC)c(C(=O)NC5CC5)c(OC(F)F)c4)cnc3c2)CC1` (centres unmarked) [compound 382, ethyl 1-[3-[3-[4-(cyclopropylcarbamoyl)-3-(difluoromethoxy)-5-methoxy-phenyl]imidazo[1,2-a]pyridin-7-yl]oxy-2-hydroxy-propyl]-4-methyl-piperidine-4-carboxylate]: the negative-log IC50 (pIC50) on SIK2 is 8.00 to 11.00; at SIK3, 8.00 to 11.00; against SIK1, 7.00 to 8.00. The pEC50 in test [1] (4 h) was 7.00 to 10.00. Besides, the “IL-10 FCmax median” value in test [2] is “++ (>1.5-4.5)”.
With `CCOC(=O)C1CCN(CCCOc2ccn3c(-c4cc(OC)c(C(=O)NC5CC5)c(OC(F)F)c4)cnc3c2)CC1` [compound 377, ethyl 1-[3-[3-[4-(cyclopropylcarbamoyl)-3-(difluoromethoxy)-5-methoxy-phenyl]imidazo[1,2-a]pyridin-7-yl]oxypropyl]piperidine-4-carboxylate], the values for the negative logarithm of the IC50 (pIC50) against SIK2, against SIK3 and on SIK1 were 8.00 to 11.00, 8.00 to 11.00 and 7.00 to 8.00, respectively. The molecule also gave a pEC50 in test [1] (4 h) of 7.00 to 10.00. In addition, the “IL-10 FCmax median” value in test [2] is listed as “++ (>1.5-4.5)”.
Regarding `COc1cc(-c2cnc3cc(OC[C@@H]4CCN(C(C)C)C4)ccn23)cc(OC(F)F)c1C(=O)NC1CC1` [compound 337, N-cyclopropyl-2-(difluoromethoxy)-4-[7-[[(3R)-1-isopropylpyrrolidin-3-yl]methoxy]imidazo[1,2-a]pyridin-3-yl]-6-methoxy-benzamide], the pIC50 against SIK2 is 8.00 to 11.00; on SIK3, 8.00 to 11.00; against SIK1 it was 7.00 to 8.00. In test [1] (4 h), this molecule gave a pEC50 of 7.00 to 10.00. In test [2], the “IL-10 FCmax median” value was “+++ (>4.5)”.
Turning to `COc1cc(-c2cnc3cc(OCC(O)CN4CCS(=O)(=O)CC4)ccn23)cc(OC(F)F)c1C(=O)NC1CC1` (centres unmarked) [compound 374, N-cyclopropyl-2-(difluoromethoxy)-4-[7-[3-(1,1-dioxo-1,4-thiazinan-4-yl)-2-hydroxy-propoxy]imidazo[1,2-a]pyridin-3-yl]-6-methoxy-benzamide], the pIC50 is 8.00 to 11.00 against SIK2, 8.00 to 11.00 at SIK3 and 7.00 to 8.00 at SIK1. The molecule further gave a negative-log EC50 (pEC50) in test [1] (4 h) of 6.00 to 7.00. In addition, in test [2], the “IL-10 FCmax median” value is listed as “+++ (>4.5)”.
On to `COc1cc(-c2cnc3cc(OCCCN4CCCCC4)ccn23)cc(OC(F)F)c1C(=O)N1CC(O)(C(F)(F)F)C1` [compound 354, [2-(difluoromethoxy)-6-methoxy-4-[7-[3-(1-piperidyl)propoxy]imidazo[1,2-a]pyridin-3-yl]phenyl]-[3-hydroxy-3-(trifluoromethyl)azetidin-1-yl]methanone], for which the negative-log IC50 (pIC50) was 8.00 to 11.00 against SIK2, 8.00 to 11.00 against SIK3 and 7.00 to 8.00 on SIK1. Further, the pEC50 in test [1] (4 h) is 6.00 to 7.00. Further, the “IL-10 FCmax median” value in test [2] is reported as “+++ (>4.5)”.
